Experiments:
[1] = system: reniform nematode Rotylenchulus reniformis; test: Greenhouse pot test, soil drench, reniform nematode population in soil; assay type: in vivo; details: 1 Kg infested soil per pot, drench in 100 mls; urea alone 150 mgs/Kg soil; NBG 1-5 mls/kg soil without urea
Protocol: The effect of neutralized bioglycerin (NBG), either in the presence or absence of organic nitrogen, was tested on the growth of cotton plants and parasitic nematodes. Neutralized bioglycerin (NBG) was applied at rates of 0, 1, 2, 3, 4, and 5 mls/kg soil either with or without urea (150 mgs/Kg soil of the compound to achieve about 70 mgs N/Kg soil). Applications were performed by drenching the soil in aqueous solution so that the final application volume per pot was 100 mls (which is equivalent to an acre inch of irrigation). Each pot contained 1 Kg of soil infested with the reniform nematode Rotylenchulus reniformis and there were 7 replications (pots)/treatment. Thus, for example, for the 1 ml NBG application there were 14 pots, 7 of which received each water up to 100 mls containing 1 ml NBG; the other 7 pots received each 1 ml NBG+150 mgs urea mixed in a final volume of 100 mls. The carbon:nitrogen ratios (C/N) of the combined treatments ranged from about 5.6 for the 1 ml NBG treatment to 28 for the 5 mls NBG treatment.

nematodes = details: greenhouse and field experiments; cited from earlier work
fungi = details: greenhouse and field experiments; cited from earlier work

Row | Structure (SMILES) | effect on reniform nematode numbers [1] | nematocidal activity (nematodes) | fungicidal activity (fungi)
1 | NC(N)=O [Urea, urea] | suppressed | – | –
2 | C=CC=O [acrolein, 2-propenal] | – | nematocidal | fungicidal
